Laboratory results reported in patent US20240390295A1, “METHODS FOR TREATING DEPRESSION” (JANSSEN PHARMACEUTICA NV, priority 2020, published 2024).
Several values for one entry are separate records, joined by “and”; a condition that tells them apart may be missing. Equal values may be shown once.

Test system: adult patients (aged 18-64 years) with TRD
Assay: Clinician-reported adverse events: incidence and recurrence by Week 1/Week 4 frequency, pooled studies 1 and 2 (ESK + OAD)
Format: in vivo, human
Excerpt: Data were pooled from adult patients (aged 18-64 years) with TRD. Patients had recurrent or single-episode (>2 years) MDD (DSM-5), a Clinician-Rated Inventory of Depressive Symptomatology score of >3 and a total Montgomery-Åsberg Depression Rating Scale (MADRS) score of >2. At screening, depressive symptoms had been non-responsive to adequate trials of ≥1 and ≤5 commercially available OAD in the current depressive episode. Non response was further confirmed by a prospective trial of a different OAD lasting ≥4 weeks and during the screening phase.
In brief, study 1 was a double-blind, placebo-controlled relapse prevention trial comparing the efficacy of ESK versus placebo nasal spray, both in conjunction with a Food and Drug Administration (FDA)-approved OAD, in delaying relapse of depressive symptoms in patients with TRD who were either in stable remission or stable response after four months' treatment with ESK in conjunction with a FDA-approved OAD. Study 2 was an open-label, multicenter study that assessed the long-term safety and efficacy of ESK in conjunction with an FDA-approved OAD in patients with TRD.
The analysis was limited to the two doses of ESK (56 mg and 84 mg) approved for use by the FDA for patients with TRD. Patients received ESK (56 or 84 mg) in conjunction with an OAD twice weekly during the induction phase (Weeks 1-4); once weekly during Weeks 5-8 of the optimization phase: either once weekly or every other week during the remainder of the 12-week optimization phase and the maintenance phase (individualized according to the severity of depressive symptoms [MADRS total score≤/>12] and tolerability).
Patients were monitored for >90 minutes after ESK administration at each treatment session, after which time they could leave the clinical site at the clinician's discretion. AEs were monitored and reported, and safety assessments, including clinical laboratory tests and physical examinations, were conducted throughout the study. Clinician-reported AEs were categorized as mild, moderate, or severe based on clinical judgement (Table 1).
This analysis included any treatment sessions in which patients received ESK (either open-label or blinded). The occurrence and severity of AEs were assessed within the following timeframes: Month 1 (Week 1 and Weeks 2-4), Month 2 (Weeks 5-8), Months 3-6 and Months 6-12. Severity of clinician-reported AEs were scored as 0 (no AE), 1 (mild), 2 (moderate), and 3 (severe). To examine AEs in individual patients over time, only patients who received at least one ESK dose in the following period were included in the analyses of each respective period. Thus, patient data were retained in (i) Week 1 if the patient received ≥1 ESK dose in Weeks 2-4, (ii) Weeks 2-4 if the patient received ≥1 ESK dose in Weeks 5-8, (iii) Weeks 5-8 if the patient received ≥1 ESK dose in Months 3-6, and (iv) Months 3-6 if the patient received ≥1 ESK dose in Months 6-12.
The five most commonly reported treatment-emergent events occurring with ESK plus OAD therapy (dissociation, dizziness, nausea, sedation, and vertigo) were evaluated, each of which has an incidence ≥5% and at least a 2-fold greater incidence than with placebo plus an OAD. 14 Increases in BP were also examined.
Week 1 and Week 4 were set a priori as index weeks because they are the beginning and end of the induction period. Frequencies and maximum-reported severities of AEs reported during these index weeks served as stratifying variables by which to examine recurrence and severities of AE recurrences in future timeframes.

[1] = Weeks 2-4, overall rate for timeframe
[2] = Weeks 5-8, overall rate for timeframe
[3] = human, in vivo, other: nasal spray, 1 week

Structure (SMILES): CN[C@]1(c2ccccc2Cl)CCCCC1=O [esketamine, (S)-2-(2-chlorophenyl)-2-(methylamino)cyclohexanone]
- Clinician-reported dissociation (Weeks 2-4, AE once in Week 1): 48.2%
- Clinician-reported increased blood pressure (Weeks 2-4, AE once in Week 1): 56.5%
- Clinician-reported sedation (Weeks 2-4, AE once in Week 1): 36.8%
- Dizziness (Weeks 2-4, AE once in Week 1): 51.9%
- Nausea (Weeks 2-4, AE once in Week 1): 28.6%
- Vertigo (Weeks 2-4, AE once in Week 1): 67.4%
- Clinician-reported dissociation (Weeks 2-4, AE twice in Week 1): 86.5%
- Clinician-reported increased blood pressure (Weeks 2-4, AE twice in Week 1): 77.8%
- Clinician-reported sedation (Weeks 2-4, AE twice in Week 1): 70.6%
- Dizziness (Weeks 2-4, AE twice in Week 1): 86.4%
- Nausea (Weeks 2-4, AE twice in Week 1): 61.9%
- Vertigo (Weeks 2-4, AE twice in Week 1): 90.3%
- Clinician-reported dissociation (Weeks 2-4, No AE in Week 1): 5.6% and 5.7%
- Clinician-reported increased blood pressure (Weeks 2-4, No AE in Week 1): 2.4%
- Clinician-reported sedation (Weeks 2-4, No AE in Week 1): 2.1%
- Dizziness (Weeks 2-4, No AE in Week 1): 6.3%
- Nausea (Weeks 2-4, No AE in Week 1): 5.3%
- Vertigo (Weeks 2-4, No AE in Week 1): 5.5%
- Anxiety (Weeks 2-4, None in Week 1): 1.3%
- Feeling Drunk (Weeks 2-4, None in Week 1): 0.4%
- Hypoesthesia (Weeks 2-4, None in Week 1): 3.7%
- Lethargy (Weeks 2-4, None in Week 1): 1.0%
- Vomiting (Weeks 2-4, None in Week 1): 2.4%
- Anxiety (Weeks 2-4, Once in Week 1): 11.8%
- Feeling Drunk (Weeks 2-4, Once in Week 1): 30.8%
- Hypoesthesia (Weeks 2-4, Once in Week 1): 54.3%
- Lethargy (Weeks 2-4, Once in Week 1): 71.4%
- Vomiting (Weeks 2-4, Once in Week 1): 31.0%
- Anxiety (Weeks 2-4, Overall): 1.7%
- Feeling Drunk (Weeks 2-4, Overall): 1.9%
- Hypoesthesia (Weeks 2-4, Overall): 7.2%
- Lethargy (Weeks 2-4, Overall): 1.5%
- Vomiting (Weeks 2-4, Overall): 3.3%
- Anxiety (Weeks 2-4, Twice in Week 1): 100%
- Feeling Drunk (Weeks 2-4, Twice in Week 1): 90.9%
- Hypoesthesia (Weeks 2-4, Twice in Week 1): 76.2%
- Lethargy (Weeks 2-4, Twice in Week 1): 0%
- Vomiting (Weeks 2-4, Twice in Week 1): 0%
- Clinician-reported dissociation [1]: 16.1%
- Clinician-reported increased blood pressure [1]: 5.2%
- Clinician-reported sedation [1]: 4.1%
- Dizziness [1]: 19.2%
- Nausea [1]: 9.4%
- Vertigo [1]: 15.0%
- Clinician-reported dissociation (Weeks 5-8, AE once in Week 1): 29.8%
- Clinician-reported increased blood pressure (Weeks 5-8, AE once in Week 1): 40.9%
- Clinician-reported sedation (Weeks 5-8, AE once in Week 1): 22.2%
- Dizziness (Weeks 5-8, AE once in Week 1): 30.8%
- Nausea (Weeks 5-8, AE once in Week 1): 16.1%
- Vertigo (Weeks 5-8, AE once in Week 1): 45.2%
- Clinician-reported dissociation (Weeks 5-8, AE twice in Week 1): 60.0%
- Clinician-reported increased blood pressure (Weeks 5-8, AE twice in Week 1): 55.6%
- Clinician-reported sedation (Weeks 5-8, AE twice in Week 1): 52.9%
- Dizziness (Weeks 5-8, AE twice in Week 1): 62.5%
- Nausea (Weeks 5-8, AE twice in Week 1): 30.0%
- Vertigo (Weeks 5-8, AE twice in Week 1): 67.6%
- Clinician-reported dissociation (Weeks 5-8, No AE in Week 1): 6.1%
- Clinician-reported increased blood pressure (Weeks 5-8, No AE in Week 1): 1.9%
- Clinician-reported sedation (Weeks 5-8, No AE in Week 1): 1.2%
- Dizziness (Weeks 5-8, No AE in Week 1): 3.7%
- Nausea (Weeks 5-8, No AE in Week 1): 1.7%
- Vertigo (Weeks 5-8, No AE in Week 1): 3.0%
- Anxiety (Weeks 5-8, None in Week 1): 0.8%
- Feeling Drunk (Weeks 5-8, None in Week 1): 0.1%
- Hypoesthesia (Weeks 5-8, None in Week 1): 1.6%
- Lethargy (Weeks 5-8, None in Week 1): 1.1%
- Vomiting (Weeks 5-8, None in Week 1): 1.5%
- Anxiety (Weeks 5-8, Once in Week 1): 5.9%
- Feeling Drunk (Weeks 5-8, Once in Week 1): 16.7%
- Hypoesthesia (Weeks 5-8, Once in Week 1): 20.7%
- Lethargy (Weeks 5-8, Once in Week 1): 40.0%
- Vomiting (Weeks 5-8, Once in Week 1): 21.1%
- Anxiety (Weeks 5-8, Overall): 1.0%
- Feeling Drunk (Weeks 5-8, Overall): 1.6%
- Hypoesthesia (Weeks 5-8, Overall): 3.4%
- Lethargy (Weeks 5-8, Overall): 1.2%
- Vomiting (Weeks 5-8, Overall): 1.8%
- Anxiety (Weeks 5-8, Twice in Week 1): 50.0%
- Feeling Drunk (Weeks 5-8, Twice in Week 1): 90.9%
- Hypoesthesia (Weeks 5-8, Twice in Week 1): 58.3%
- Lethargy (Weeks 5-8, Twice in Week 1): 0%
- Vomiting (Weeks 5-8, Twice in Week 1): 0%
- Clinician-reported dissociation [2]: 12.6%
- Clinician-reported increased blood pressure [2]: 3.9%
- Clinician-reported sedation [2]: 2.6%
- Dizziness [2]: 12.5%
- Nausea [2]: 4.0%
- Vertigo [2]: 9.9%
- increased blood pressure reported (all subsequent postdose monitoring periods, no increased blood pressure in week 1): < 4%
- dissociation as an AE into months 3-6 (dissociation twice in week 1): > 50%
- dizziness at 3-6 months (dizziness not reported in week 1 (exception)): 11.6%
- patients who did not have increased blood pressure during week 1 [3]: 95.7%
- patients who did not report dissociation during week 1 [3]: 83.2%
- patients who did not report nausea during week 1 [3]: 86.0%
- impact of dose (56 or 84 mg modal dose) on AE recurrence (most pronounced with dissociation and dizziness): small dose effect
- dissociation occurred (remainder of induction period, no dissociation in week 1): < 10%
- nausea reported (subsequent postdose monitoring periods, no nausea in week 1): < 6%
